The record followed here is article PMC13195669, “GPR3 Ligands Discovered through Combined Virtual and Conformational Biosensor-Based Screening” (Journal of the American Chemical Society, 2026).

The test system of this assay is β2AR. Briefly: β2AR-HaloTag/Nluc conformational biosensor (negative control) in HEK293A cells. As to conditions: β2AR-HaloTag/Nluc as negative control; HEK293A stable. In kind it is cell-based, human. The method, then:
Initially, all 93 molecules were tested for activity at the GPR3 biosensor at a concentration of 1 μM (Figure a). […] Of the five compounds that emerged from the virtual screen, three–hereafter referred to as virtual hit 1–3, VH1/2/3–were selected for in-house chemical synthesis (compounds 52, 93, and 115; cf. Scheme , Figure S6), providing compounds of ≥99% purity for hit validation (NMR spectra: Figures S7–S142; HPLC purity: Figures S143–S218). For VH1, the racemic mix, rac-VH1/52, was synthesized and used for testing. Compounds 52, VH2/93, and VH3/115 (Figure S6) were then validated with the GPR3 biosensor including β2AR-HaloTag/Nluc as a negative control.
BRET-based GPCR conformational sensor experiments
Cells expressing the conformational GPCR biosensors were grown for 24 h (stable cells) or 48 h (transiently transfected cells) in white 96-well plates and washed with 100 µl of HBSS. After washing, cells were incubated for 2 minutes with a 1/1000 solution of the furimazine stock solution (Promega; cat. no. N1662). Three baseline BRET reads were recorded and averaged prior to the addition of serial dilutions of ligands or veh icle control and subsequent BRET reads. All experiments were con-ducted at 37 °C. BRE T donor emission was quantified with a 470/80 nm monochromator. BRET acceptor emission was quan-tified using a 660/100 nm monochromator. Experiments were carried out using a CLARIOstar plate reader. […]
FRET and BRET ratios were defined as acceptor emission/donor emission. […] To quantify ligand-induced changes ΔFRET and ΔBRET were calculated for each well as a percent over basal ([(Ratiostim − Ratiobasal)/Ratiobasal] × 100). […]
Data from FRET/BRET experiments were fitted using a three-parameter fit. Z-factors expressing the high-throughput suita-bility were calculated with the following equation: […]
Commercially available chemicals and solvents were purchased from standard commercial suppliers (Merck (Darmstadt, Ger-many), Sigma-Aldrich (Munich, Germany), Acros Organics (Geel, Belgium), Alfa Aesar (Karlsruhe, Germany), abcr (Karlsruhe, Germany), BLD Pharmatech (Reinbek, Germany) or TCI Europe (Zwijndrecht, Belgium) and were used as received. Deuter-ated solvents for nuclear magnetic resonance (1H NMR and 13C NMR) spectra were purchased from Deutero GmbH (Kastel-laun, Germany). All reactions carried out with dry solvents were accomplished in dry flasks under nitrogen or argon atmos-phere. For the preparation of buffers, HPLC eluents, and stock solutions millipore water was used. […] The reactions were monitored by thin layer chromatography (TLC) on Merck silica gel 60 F254 aluminium sheets and spots were visualized under UV light at 254 nm, by potassium permanganate or ninhydrin staining. […]

Regarding `N=c1n(Cc2ccccc2)c2ccccc2n1CC1CC1` [compound 33], the “specificity of conformational response for GPR3 vs β2AR-HaloTag/Nluc” value (“specificity … vs β2AR-HaloTag/Nluc” below) was “selectivity for GPR3 over β2AR”.

Consider `N=c1n(Cc2ccccc2)c2ccccc2n1CC(O)COc1ccc(Cl)cc1` (stereo not drawn) [compound 52], for which the “specificity … vs β2AR-HaloTag/Nluc” value was “concentration-dependent and GPR3-specific conformational changes”.

Take `Cc1ccc(NC(=O)CN2CCN(C(=O)CCc3ccc(Cl)cc3)CC2)cc1` [compound 115]: the “specificity … vs β2AR-HaloTag/Nluc” value was “concentration-dependent and GPR3-specific conformational changes”.
